In brackets after ≈: the same amount, converted by molar mass.
Legend:
[1] = tested on: Mycobacterium tuberculosis; experiment: Antimycobacterial activity against Mycobacterium tuberculosis H37Rv ATCC 27294 at 6.25 ug/mL by BACTEC 460 radiometric assay; format: functional
[2] = tested on: Mycobacterium tuberculosis; experiment: Antimycobacterial activity against Mycobacterium tuberculosis H37Rv ATCC 27294; format: functional
[3] = Cytotoxicity against mouse macrophage cells assessed as cell viability at 10 ug/100 ul after 24 hrs by MTT assay; format: cell-based; conditions: read-out: Activity
[4] = Cytotoxicity against mouse macrophage cells assessed as cell viability at 10 ug/100 ul after 72 hrs by MTT assay; format: cell-based; conditions: read-out: Activity
[5] = Cytotoxicity against mouse macrophage cells assessed as cell viability at 1 ug/100 ul after 24 hrs by MTT assay; format: cell-based; conditions: read-out: Activity
[6] = Cytotoxicity against mouse macrophage cells assessed as cell viability at 1 ug/100 ul after 72 hrs by MTT assay; format: cell-based; conditions: read-out: Activity

Row | Compound | inhibition at 6.25 µg/mL [1] [%] | further results
1 | CC(O)c1cc(F)ccc1Oc1nc2ccc(NC(=O)Nc3cccc([N+](=O)[O-])c3)cc2cc1Cc1ccccc1 (stereo not given) | 98 | MIC [2]: 6.25 µg/mL (≈ 11.3 µM); viability at 24 h, 10 ug/100 ul [3]: 87%; viability at 72 h, 10 ug/100 ul [4]: 53%; viability at 24 h, 1 ug/100 ul [5]: 91%; viability at 72 h, 1 ug/100 ul [6]: 55%
2 | COc1cccc(-c2ccn(CC(O)c3cc(F)ccc3Oc3nc4ccc([N+](=O)[O-])cc4cc3Cc3ccccc3)n2)c1 (stereo not given) | 7 | 
3 | COc1ccc(-c2ccn(CC(O)c3cc(F)ccc3Oc3nc4ccc([N+](=O)[O-])cc4cc3Cc3ccccc3)n2)cc1 (stereo not given) | 5 | 
4 | CC(c1cc(F)ccc1Oc1nc2ccc(-n3cc(-c4ccccc4)nn3)cc2cc1Cc1ccccc1)N1CCCCC1 (stereo not given) | 81 | 
5 | O=[N+]([O-])c1ccc2nc(Oc3ccc(F)cc3C(O)CN3CCOCC3)c(Cc3ccccc3)cc2c1 (stereo not given) | 29 | 
6 | COc1ccccc1NC(=O)Nc1ccc2nc(Oc3ccc(F)cc3C(C)O)c(Cc3ccccc3)cc2c1 (stereo not given) | 8 | 
7 | COc1cccc(NC(=S)Nc2ccc3nc(Oc4ccc(F)cc4C(C)O)c(Cc4ccccc4)cc3c2)c1 (stereo not given) | 22 | 
8 | COc1ccc(NC(=O)Nc2ccc3nc(Oc4ccc(F)cc4C(C)O)c(Cc4ccccc4)cc3c2)cc1 (stereo not given) | 25 | 
9 | CC(c1cc(F)ccc1Oc1nc2ccc(-n3cc(-c4ccccc4)nn3)cc2cc1Cc1ccccc1)N1CCN(c2ccccn2)CC1 (stereo not given) | 29 | 
10 | O=[N+]([O-])c1ccc2nc(Oc3ccc(F)cc3C(O)Cn3ccc(-c4ccc(C(F)(F)F)cc4)n3)c(Cc3ccccc3)cc2c1 (stereo not given) | 6 | 
11 | CC(c1cc(F)ccc1Oc1nc2ccc(-n3cc(-c4ccccc4)nn3)cc2cc1Cc1ccccc1)n1ccnc1 (stereo not given) | 96 | MIC [2]: 3.12 µg/mL (≈ 5.51 µM); viability at 24 h, 10 ug/100 ul [3]: 88%; viability at 72 h, 10 ug/100 ul [4]: 58%; viability at 24 h, 1 ug/100 ul [5]: 100%; viability at 72 h, 1 ug/100 ul [6]: 61%
12 | O=[N+]([O-])c1ccc2nc(Oc3ccc(F)cc3C(O)Cn3ccc(-c4cccc(Cl)c4)n3)c(Cc3ccccc3)cc2c1 (stereo not given) | 0 | 
13 | O=[N+]([O-])c1ccc2nc(Oc3ccc(F)cc3C(O)CN3CCNCC3)c(Cc3ccccc3)cc2c1 (stereo not given) | 20 | 
14 | O=[N+]([O-])c1ccc2nc(Oc3ccc(F)cc3C(O)Cn3cccn3)c(Cc3ccccc3)cc2c1 (stereo not given) | 53 | 
15 | CC(c1cc(F)ccc1Oc1nc2ccc(-n3cc(-c4ccccc4)nn3)cc2cc1Cc1ccccc1)N1CCN(c2ccc(F)cc2)CC1 (stereo not given) | 20 | 
16 | O=[N+]([O-])c1ccc2nc(Oc3ccc(F)cc3C(O)Cn3ccnc3)c(Cc3ccccc3)cc2c1 (stereo not given) | 58 | 
17 | COc1cccc(NC(=O)Nc2ccc3nc(Oc4ccc(F)cc4C(C)O)c(Cc4ccccc4)cc3c2)c1 (stereo not given) | 94 | MIC [2]: 3.12 µg/mL (≈ 5.81 µM); viability at 24 h, 10 ug/100 ul [3]: 79%; viability at 72 h, 10 ug/100 ul [4]: 63%; viability at 24 h, 1 ug/100 ul [5]: 100%; viability at 72 h, 1 ug/100 ul [6]: 100%
18 | CC(O)c1cc(F)ccc1Oc1nc2ccc(NC(=S)NCc3ccc(Cl)cc3)cc2cc1Cc1ccccc1 (stereo not given) | 37 | 
19 | COc1ccc(NC(=S)Nc2ccc3nc(Oc4ccc(F)cc4C(C)O)c(Cc4ccccc4)cc3c2)cc1 (stereo not given) | 27 | 
20 | COc1ccccc1NC(=S)Nc1ccc2nc(Oc3ccc(F)cc3C(C)O)c(Cc3ccccc3)cc2c1 (stereo not given) | 14 | 

Reference: ChEMBL document CHEMBL1152944, “Design, synthesis and biological evaluation of novel triazole, urea and thiourea derivatives of quinoline against Mycobacterium tuberculosis” (Bioorg Med Chem, 2009)
